Experimental data published in patent publication US9157105B2, “Biosynthesis of CMP-legionaminic acid from fructose-6-P, and respective pathway intermediates, using novel GDP-linked precursors” (priority 2008, dated 2015).

Experiments:
Type in all cases: biochemical, Campylobacter jejuni 11168
[1] = test system: LegB (Cj1319, 4,6-dehydratase); experiment: LegB C4,6 dehydratase reaction with NDP-sugars; details: in the presence or absence of NAD(P)+
Protocol: (§1) Enzymatic reactions were performed for 4.5 h at 37° C., and then overnight at 25° C., with approximately 200 μg ml^−1 respective protein concentration using chemicals from Sigma (unless otherwise indicated). GDP-glucosamine biosynthesis. The ‘one-pot’ enzymatic synthesis of GDP-GlcN from Fru-6-P (I→IV) was accomplished using a 3 ml reaction containing His6PtmF, PtmAHis6, PgmLHis6, His6PtmE, 5 mM Fru-6-P (I), 10 mM L-Gln, 1 mM DTT, 5 mM MgCl2, 0.8 U ml^−1 pyrophosphatase, and 2.5 mM GTP in 25 mM Tris pH 7.5. Large-scale enzymatic synthesis of GDP-GlcN (IV) was accomplished using a 12 ml reaction containing 50 mM Tris pH 7.5, 1 mM GTP, 1 mM MgCl2, 0.8 U ml^−1 pyrophosphatase, 1.2 mM GlcN-1-P (III) and approximately 4.8 mg of His6PtmE. The large-scale enzymatic synthesis of GDP-GlcNAc was performed similar to that above, except the scale was increased five-fold and GlcNAc-1-P was used in place of GlcN-1-P (III). Assessment of His6PtmE substrate specificity was accomplished using 9 reactions, 80 μl each, containing 50 mM Tris pH 7.5, 2 mM MgCl2, 50 μg His6PtmE, and various combinations of 10 mM sugar-1-P (GalN-1-P, GlcN-1-P or GlcNAc-1-P) and 0.2 mM NTP (CTP, GTP, or TTP). Conversion of GDP-GlcN to GDP-GlcNAc. The His6GlmU reaction was performed using 1 mM GDP-GlcN (IV), 1.2 mM acetyl-CoA and His6GlmU in 25 mM sodium phosphate pH 7.8, 25 mM NaCl, 10 mM β-mercaptoethanol. In addition, a control reaction was performed containing 1 mM GlcN-1-P (III) instead of IV. Biosynthesis of legionaminic acid from GDP-GlcNAc. The stepwise enzymatic synthesis of intermediates or products was accomplished in 2 stages (V→VI→VII→VIII, and then VIII→IX→X) using 1 mM of V, 0.5 mM NAD, 0.8 mM PLP, 8 mM L-Glu, 1.2 mM acetyl-CoA, 1.2 mM PEP, LegBHis6, His6LegC, His6LegH, His6LegG, and His6LegI as appropriate, in 25 mM sodium phosphate pH 7.3, 25 mM NaCl. Assessment of His6LegG activity involved monitoring the reaction kinetics by ^1H NMR (see NMR spectroscopy) for 75 min using 0.75 mM GDP-2,4-diacetamido-2,4,6-trideoxy-α-D-Glc (VIII), 4 μg His6LegG in 200 μl of 25 mM sodium phosphate pH 7.3, 25 mM NaCl at 25° C. In addition, the substrate flexibility of His6LegG was assessed using a 300 μl reaction containing 40 μg His6LegG, 25 mM sodium phosphate pH 7.3, 25 mM NaCl, and 0.75 mM UDP-2,4-diacetamido-2,4,6-trideoxy-α-D-Glc, with incubation at 37° C. for 1.5 h, and then overnight at 25° C. Biosynthesis of CMP-legionaminic acid. The CMP-activation of legionaminic acid (X→XI) was performed using a 20 ml reaction containing approximately 0.2 mM of X, 50 mM MgCl2, 3 mM CTP, and 15 mg of LegFHis6 in 25 mM sodium phosphate pH 7.8, 25 mM NaCl, with incubation at 37° C. for 5 h, and then 25° C. for 72 h. Metabolite purification. Typically, reactions were passed through an Amicon Ultra-15 (10,000 molecular weight cut-off) or Ultra-4 (5,000 molecular weight cut-off) filter membrane before analysis. As required, NDP-sugar preparations (GDP-Glc, GDP-GlcN, GDP-GlcNAc, CDP-GlcNAc, TDP-GlcNAc, and CMP-Leg) were lyophilized and desalted/purified using a Superdex Peptide 10/300 GL (Amersham Biosciences) column in 25 mM ammonium bicarbonate, pH 7.9. For further purity, the NDP-sugar samples above were subjected to anion-exchange chromatography (Mono Q 4.6/100 PE, Amersham Biosciences) using ammonium bicarbonate pH 7.9. Quantification of NDP-sugar preparations was determined using the molar extinction coefficients of CMP (ε260=7,400), GDP (ε260=11,500), TDP (ε260=8,700), and UDP (ε260=10,000).
(§2) CE analysis was performed using either a P/ACE 5510 or P/ACE MDQ system (Beckman Instruments, Mississauga, Ont) with diode array detection. The capillaries were bare silica 50 μm×50 cm, with a detector at 50 cm, and the running buffer was 25 mM sodium tetraborate pH 9.4. Samples were introduced by pressure injection for 6 sec, and the separation was performed at 18 kV for 20 min. Peak integration was done using the Beckman P/ACE station software.

[2] = test system: His6PtmE (Cj1329, nucleotidyltransferase); experiment: His6PtmE substrate specificity (sugar-1-P acceptors and NTP donors); details: for PtmE activity with sugar-1-P acceptor: 10 mM sugar-1-P, 0.2 mM NTP, 30 min at 37° C.; for PtmE NTP donor specificity with this sugar acceptor: NTP = CTP, GTP or TTP
Protocol: as §1, with “Enzymatic reactions were performed for 4.5 h at 37° C., and then overnight at 25° C., with approximately 200 μg ml^−1 respective protein concentration using chemicals from Sigma (unless otherwise indicated).” left out
as §2

[3] = molecular target: T1, His6LegG (Cj1328, NDP-sugar hydrolase/2-epimerase) (Campylobacter jejuni subsp. jejuni serotype O:2, UniProt Q0P8T0); experiment: His6LegG activity and substrate flexibility (1H NMR, CE)
T1 construct: made in house; host or cells: E. coli BL21[DE3]
Protocol: as §1, with “The CMP-activation of legionaminic acid (X→XI) was performed using a 20 ml reaction containing approximately 0.2 mM of X, 50 mM MgCl2, 3 mM CTP, and 15 mg of LegFHis6 in 25 mM sodium phosphate pH 7.8, 25 mM NaCl, with incubation at 37° C. for 5 h, and then 25° C. for 72 h. Metabolite purification. Typically, reactions were passed through an Amicon Ultra-15 (10,000 molecular weight cut-off) or Ultra-4 (5,000 molecular weight cut-off) filter membrane before analysis. As required, NDP-sugar preparations (GDP-Glc, GDP-GlcN, GDP-GlcNAc, CDP-GlcNAc, TDP-GlcNAc, and CMP-Leg) were lyophilized and desalted/purified using a Superdex Peptide 10/300 GL (Amersham Biosciences) column in 25 mM ammonium bicarbonate, pH 7.9. For further purity, the NDP-sugar samples above were subjected to anion-exchange chromatography (Mono Q 4.6/100 PE, Amersham Biosciences) using ammonium bicarbonate pH 7.9.” left out, “(ε260=10,000). […]” for “(ε260=10,000).”

T1 sequence (Q0P8T0 whole entry): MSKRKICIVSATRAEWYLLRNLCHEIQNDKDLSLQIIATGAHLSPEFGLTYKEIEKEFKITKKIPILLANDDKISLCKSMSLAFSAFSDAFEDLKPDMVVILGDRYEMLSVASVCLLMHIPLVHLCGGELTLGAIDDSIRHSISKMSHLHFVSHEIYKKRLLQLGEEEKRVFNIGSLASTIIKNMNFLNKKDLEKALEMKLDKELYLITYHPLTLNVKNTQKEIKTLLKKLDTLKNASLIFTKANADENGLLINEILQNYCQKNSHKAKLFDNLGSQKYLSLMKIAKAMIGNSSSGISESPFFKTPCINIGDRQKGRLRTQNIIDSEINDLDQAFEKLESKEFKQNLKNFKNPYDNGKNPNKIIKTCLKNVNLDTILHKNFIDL

SMILES | LegB reaction product formation [1] | PtmE activity with sugar-1-P acceptor [2] | other results
Cc1cn([C@H]2C[C@H](O)[C@@H](COP(=O)(O)OP(=O)(O)O[C@H]3O[C@H](CO)[C@@H](O)[C@H](O)[C@H]3O)O2)c(=O)[nH]c1=O [TDP-Glc] | did not yield discernable product | – | –
N[C@H]1C(OP(=O)(O)O)O[C@H](CO)[C@H](O)[C@@H]1O (stereo partly shown) [GalN-1-P] | – | no activity was observed | –
O=P(O)(O)O[C@H]1O[C@H](CO)[C@@H](O)[C@H](O)[C@H]1O [Glc-1-P, glucose-1-phosphate] | – | activity was observed | –
CC(=O)N[C@H]1[C@@H](OP(=O)(O)O)O[C@H](CO)[C@@H](O)[C@@H]1O [GlcNAc-1-P, N-acetyl-α-D-glucosamine-1-phosphate] | – | activity was observed | PtmE NTP donor specificity with this sugar acceptor [2]: exhibited promiscuity with respect to activator NTP donors
CC(=O)N[C@H]1[C@@H](OP(=O)(O)OP(=O)(O)OC[C@H]2O[C@@H](n3ccc(=O)[nH]c3=O)[C@H](O)[C@@H]2O)O[C@H](C)[C@@H](NC(C)=O)[C@@H]1O [UDP-2,4-diacetamido-2,4,6-trideoxy-α-D-glucose, reference compound] | – | – | NDP removal by LegG ([3]; quantity of LegG increased 10-fold, 90 min 37° C. then 16 h 25° C., CE): UDP removal was observed; formation of IX by LegG ([3]; similar conditions (4 μg LegG)): IX was not observed
CC(=O)N[C@H]1[C@@H](OP(=O)(O)OP(=O)(O)OC[C@H]2O[C@@H](n3cnc4c(=O)[nH]c(N)nc43)[C@H](O)[C@@H]2O)O[C@H](C)[C@@H](NC(C)=O)[C@@H]1O [VIII, GDP-2,4-diacetamido-2,4,6-trideoxy-α-D-glucose] | – | – | time to near completion of formation of IX by LegG ([3]; 4 μg LegG, 0.75 mM substrate, 25° C., in-tube 1H NMR): ≤ 75 min
CC(=O)NC1C(OP(=O)(O)OP(=O)(O)OCC2OC(n3ccc(N)nc3=O)C(O)C2O)OC(CO)C(O)C1O (stereo not shown) [CDP-GlcNAc, CDP-N-acetyl-glucosamine] | did not yield discernable product | – | –
CC(=O)NC1C(OP(=O)(O)OP(=O)(O)OCC2OC(n3cc(C)c(=O)[nH]c3=O)CC2O)OC(CO)C(O)C1O (stereo not shown) [TDP-GlcNAc, TDP-N-acetyl-glucosamine] | did not yield discernable product | – | –
N[C@H]1[C@@H](OP(=O)(O)O)O[C@H](CO)[C@@H](O)[C@@H]1O [III, α-D-glucosamine-1-phosphate] | – | activity was observed | PtmE NTP donor specificity with this sugar acceptor [2]: absolutely specific for GTP
CC(=O)N[C@H]1[C@@H](OP(=O)(O)OP(=O)(O)OC[C@H]2O[C@@H](n3ccc(=O)[nH]c3=O)[C@H](O)[C@@H]2O)O[C@H](CO)[C@@H](O)[C@@H]1O [UDP-GlcNAc, UDP-N-acetyl-α-D-glucosamine] | did not yield discernable product | – | –
